Data: patent US20250019371A1, “SMALL-MOLECULAR INHIBITORS FOR THE BETA-CATENIN/ B-CELL LYMPHOMA 9 PROTEIN-PROTEIN INTERACTION” (H. LEE MOFFITT CANCER CENTER AND RESEARCH INSTITUTE, INC., priority 2021, published 2025)
pIC50, pKi: −log10 of the molar value. Where two headings read alike, the source gives them in different places. Values belong to the molecule of their own block, whether it stands above or below them.

Assays:
β-catenin/BCL9 PPI = target: T1, β-catenin/BCL9 PPI (Homo sapiens, UniProt P35222); experiment: AlphaScreen competitive inhibition assay of β-catenin/BCL9 PPI; assay type: binding; details: for pKi: read-out: Ki; for AlphaScreen inhibitory activity in words: SAR comparison; for potency relative to compound 12: AlphaScreen Ki compared with 12
T1 construct: Full-length β-catenin (residues 1-781); host or cells: E. coli BL21 DE3
T1 sequence (P35222 1-781): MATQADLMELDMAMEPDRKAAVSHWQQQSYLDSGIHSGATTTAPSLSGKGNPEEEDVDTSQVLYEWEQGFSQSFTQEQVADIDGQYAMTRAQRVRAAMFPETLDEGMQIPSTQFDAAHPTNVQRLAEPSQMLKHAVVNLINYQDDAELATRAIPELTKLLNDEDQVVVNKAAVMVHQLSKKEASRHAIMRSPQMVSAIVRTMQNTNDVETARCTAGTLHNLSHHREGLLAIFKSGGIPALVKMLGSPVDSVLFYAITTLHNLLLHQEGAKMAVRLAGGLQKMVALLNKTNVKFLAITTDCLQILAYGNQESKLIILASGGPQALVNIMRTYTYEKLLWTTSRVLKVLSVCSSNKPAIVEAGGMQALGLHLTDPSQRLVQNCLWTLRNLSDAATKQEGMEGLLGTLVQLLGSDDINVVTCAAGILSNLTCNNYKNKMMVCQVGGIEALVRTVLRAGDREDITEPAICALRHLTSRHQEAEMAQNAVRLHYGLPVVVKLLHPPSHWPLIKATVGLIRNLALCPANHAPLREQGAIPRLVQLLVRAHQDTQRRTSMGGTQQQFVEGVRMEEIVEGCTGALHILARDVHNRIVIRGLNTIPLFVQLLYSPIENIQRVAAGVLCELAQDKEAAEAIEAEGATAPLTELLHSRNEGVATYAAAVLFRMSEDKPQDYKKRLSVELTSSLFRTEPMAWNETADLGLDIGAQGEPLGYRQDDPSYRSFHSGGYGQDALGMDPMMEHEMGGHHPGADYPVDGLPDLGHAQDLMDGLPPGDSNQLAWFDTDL
Procedure: AlphaScreen Assays of β-Catenin and BCL9 Interaction. Experiments were performed in white opaque 384-well plates from PerkinElmer (Waltham, MA), and the samples were read on a Biotek Synergy 2 plate reader (Winooski, VT) with excitation at 680 nm and emission at 570 nm. The standard AlphaScreen protocol was used with a sensitivity setting of 200. All dilutions were made in 1x assay buffer containing 25 mM Hepes (pH 7.4), 100 mM NaCl, 0.01% Triton X-100 and 0.1% BSA to minimize nonspecific interactions.
For the β-catenin/BCL9 assay, 5 nM biotinylated BCL9, and 50 nM His6-tagged 8-catenin were incubated in assay buffer for 30 min. Different concentrations of the tested inhibitor were added and incubated in 20 μL assay buffer for another 1 h. All of the assay plates were covered and gently mixed on an orbital shaker. Donor and acceptor beads were then added to the plates to a final concentration of 10 μg/mL in 25 μL assay buffer. The mixture was incubated for 1 h before detection. The IC50 value was determined by nonlinear least-square analysis of GraphPad Prism 8.0. […] All of the experiments were performed in triplicate and carried out in the presence of 1% DMSO for small-molecule inhibitors. Each compound was assayed at least by three independent experiments. The results were expressed as mean±standard deviation.

[1] = cell-based experiments, earlier work, cited from earlier work
[2] = Table 1, AlphaScreen, inhibitors 16-26
[3] = Table 1, AlphaScreen, inhibitors 16-26, Ki derived from IC50
[4] = first Table 3, AlphaScreen, inhibitors 31-35
[5] = Table 2, AlphaScreen, inhibitors 27-30 (R- and S-isomers), preliminary

pIC50 (β-catenin/BCL9 PPI; [2]): ≥ 5.00
pKi (β-catenin/BCL9 PPI; [3]): ≥ 5.00
Compound: CC(C)(Oc1cccc(N2CCCC(C(=O)N(Cc3ccc(-c4cccs4)cc3)C3CC3)C2)c1)C(=O)NS(=O)(=O)c1cccc(C#N)c1 (stereo not drawn) [Compound 25, 1-(3-((1-((3-Cyanophenyl)sulfonamido)-2-methyl-1-oxopropan-2-yl)oxy)phenyl)-N-cyclopropyl-N-(4-(thiophen-2-yl)benzyl) piperidine-3-carboxamide]

pIC50 (β-catenin/BCL9 PPI; [4]): ≥ 4.52
pKi (β-catenin/BCL9 PPI; [4]): ≥ 4.52
Compound: CC(C)(Oc1cccc(N2CCC[C@H](C(=O)N(Cc3ccc(-c4cccs4)cc3)C3CC3)C2)c1)C(=O)NS(=O)(=O)C1CC1 [Compound 33]

pIC50 (β-catenin/BCL9 PPI; [5]): ≥ 5.00
pKi (β-catenin/BCL9 PPI; [5]): ≥ 5.30
Compound: COc1cccc(S(=O)(=O)NC(=O)C(C)(C)Oc2cccc(N3CCC[C@@H](C(=O)N(Cc4ccc(-c5cccs5)cc4)C4CC4)C3)c2)c1 [Compound 27, (R)—N-Cyclopropyl-1-(3-((1-((3-methoxyphenyl)sulfonamido)-2-methyl-1-oxopropan-2-yl)oxy)phenyl)-N-(4-(thiophen-2-yl)benzyl) piperidine-3-carboxamide]

pIC50 (β-catenin/BCL9 PPI; [4]): ≥ 4.52
pKi (β-catenin/BCL9 PPI; [4]): ≥ 4.52
Compound: CC(C)(Oc1cccc(N2CCC[C@@H](C(=O)N(Cc3ccc(-c4cccs4)cc3)C3CC3)C2)c1)C(=O)NS(=O)(=O)C1CC1 [Compound 32]

pIC50 (β-catenin/BCL9 PPI; [5]): ≥ 5.30
pKi (β-catenin/BCL9 PPI; [5]): ≥ 5.30
Compound: CC(C)(Oc1cccc(N2CCC[C@@H](C(=O)N(Cc3ccc(-c4cccs4)cc3)C3CC3)C2)c1)C(=O)NS(=O)(=O)c1ccc(C#N)cc1 [Compound 29, (R)-1-(3-((1-((4-Cyanophenyl)sulfonamido)-2-methyl-1-oxopropan-2-yl)oxy)phenyl)-N-cyclopropyl-N-(4-(thiophen-2-yl)benzyl) piperidine-3-carboxamide]

pIC50 (β-catenin/BCL9 PPI; [4]): ≥ 4.52
pKi (β-catenin/BCL9 PPI; [4]): ≥ 4.52
Compound: COc1ccc(S(=O)(=O)NC(=O)C(C)(C)Oc2cccc(N3CCC[C@H](C(=O)N(Cc4ccc(-c5cccs5)cc4)C4CC4)C3)c2)cc1 [Compound 34]

pIC50 (β-catenin/BCL9 PPI; [4]): ≥ 5.00
pKi (β-catenin/BCL9 PPI; [4]): ≥ 5.00
Compound: CC(C)(Oc1cccc(N2CCC[C@H](C(=O)N(Cc3ccc(-c4cccs4)cc3)C3CC3)C2)c1)C(=O)NS(=O)(=O)c1cccc(C#N)c1 [Compound 35]

pIC50 (β-catenin/BCL9 PPI; [4]): ~3.70
pKi (β-catenin/BCL9 PPI; [4]): ~3.77
Compound: CC(C)(Oc1cccc(N2CCCC(C(=O)N(Cc3ccc(-c4cccs4)cc3)C3CC3)C2)c1)C(=O)NS(=O)(=O)C(F)(F)F (stereo not drawn) [Compound 31]

pIC50 (β-catenin/BCL9 PPI; [2]): ≥ 5.30
pKi (β-catenin/BCL9 PPI; [3]): ≥ 5.30
Compound: CC(C)(Oc1cccc(N2CCCC(C(=O)N(Cc3ccc(-c4cccs4)cc3)C3CC3)C2)c1)C(=O)NS(=O)(=O)c1ccc(C#N)cc1 (stereo not drawn) [Compound 26, 1-(3-((1-((4-Cyanophenyl)sulfonamido)-2-methyl-1-oxopropan-2-yl)oxy)phenyl)-N-cyclopropyl-N-(4-(thiophen-2-yl)benzyl) piperidine-3-carboxamide]

Continued, molecule first:

Compound: COc1ccc(S(=O)(=O)NC(=O)C(C)(C)Oc2cccc(N3CCCC(C(=O)N(Cc4ccc(-c5cccs5)cc4)C4CC4)C3)c2)cc1 (stereo not drawn) [Compound 23, N-Cyclopropyl-1-(3-((1-((4-methoxyphenyl)sulfonamido)-2-methyl-1-oxopropan-2-yl)oxy)phenyl)-N-(4-(thiophen-2-yl)benzyl) piperidine-3-carboxamide]
pIC50 (β-catenin/BCL9 PPI; [2]): ≥ 5.00
pKi (β-catenin/BCL9 PPI; [3]): ≥ 5.30

Compound: CC(C)(Oc1cccc(N2CCCC(C(=O)N(Cc3ccc(-c4cccs4)cc3)C3CC3)C2)c1)C(=O)NS(=O)(=O)C1CC1 (stereo not drawn) [Compound 19, 1-(3-((1-(Cyclopropanesulfonamido)-2-methyl-1-oxopropan-2-yl)oxy)phenyl)-N-cyclopropyl-N-(4-(thiophen-2-yl)benzyl) piperidine-3-carboxamide]
AlphaScreen inhibitory activity in words (β-catenin/BCL9 PPI): improved activities
pIC50 (β-catenin/BCL9 PPI; [2]): ≥ 4.52
pKi (β-catenin/BCL9 PPI; [3]): ≥ 4.52

Compound: COC(=O)C(C)(C)Oc1cccc(N2CCCC(C(=O)N(Cc3ccc(-c4cccs4)cc3)C3CC3)C2)c1 (stereo not drawn) [Compound 16, Methyl 2-(3-(3-(cyclopropyl(4-(thiophen-2-yl)benzyl)carbamoyl)piperidin-1-yl)phenoxy)-2-methylpropanoate]
AlphaScreen inhibitory activity in words (β-catenin/BCL9 PPI): significant potency loss
pIC50 (β-catenin/BCL9 PPI; [2]): < 4.00
pKi (β-catenin/BCL9 PPI; [3]): < 4.05

Compound: CC(C)c1ccc(COC(=O)N2CCC[C@@H](c3cccc(OC(C)(C)C(=O)O)c3)C2)cc1 [CP868388]
cellular activity [1]: inactive in cell-based experiments
cellular activity ([1]; listed as 1): did not show any cellular activity

Compound: CC(C)(Oc1cccc(N2CCCC(C(=O)N(Cc3ccc(-c4cccs4)cc3)C3CC3)C2)c1)C(=O)NS(=O)(=O)c1cccc(O)c1 (stereo not drawn) [Compound 24, N-Cyclopropyl-1-(3-((1-((3-hydroxyphenyl)sulfonamido)-2-methyl-1-oxopropan-2-yl)oxy)phenyl)-N-(4-(thiophen-2-yl)benzyl) piperidine-3-carboxamide]
pIC50 (β-catenin/BCL9 PPI; [2]): ≥ 5.00
pKi (β-catenin/BCL9 PPI; [3]): ≥ 5.00

Compound: COc1cccc(S(=O)(=O)NC(=O)C(C)(C)Oc2cccc(N3CCCC(C(=O)N(Cc4ccc(-c5cccs5)cc4)C4CC4)C3)c2)c1 (stereo not drawn) [Compound 22, N-Cyclopropyl-1-(3-((1-((3-methoxyphenyl)sulfonamido)-2-methyl-1-oxopropan-2-yl)oxy)phenyl)-N-(4-(thiophen-2-yl)benzyl) piperidine-3-carboxamide]
pIC50 (β-catenin/BCL9 PPI; [2]): ≥ 5.00
pKi (β-catenin/BCL9 PPI; [3]): ≥ 5.30

Compound: CC(C)S(=O)(=O)NC(=O)C(C)(C)Oc1cccc(N2CCCC(C(=O)N(Cc3ccc(-c4cccs4)cc3)C3CC3)C2)c1 (stereo not drawn) [Compound 20, N-Cyclopropyl-1-(3-((2-methyl-1-((1-methylethyl)sulfonamido)-1-oxopropan-2-yl)oxy)phenyl)-N-(4-(thiophen-2-yl)benzyl) piperidine-3-carboxamide]
AlphaScreen inhibitory activity in words (β-catenin/BCL9 PPI): improved activities
pIC50 (β-catenin/BCL9 PPI; [2]): ≥ 4.52
pKi (β-catenin/BCL9 PPI; [3]): ≥ 4.52

Compound: CC(C)(Oc1cccc(N2CCCC(C(=O)N(Cc3ccc(-c4cccs4)cc3)C3CC3)C2)c1)C(=O)NS(C)(=O)=O (stereo not drawn) [Compound 18, N-Cyclopropyl-1-(3-((2-methyl-1-(methylsulfonamido)-1-oxopropan-2-yl)oxy)phenyl)-N-(4-(thiophen-2-yl)benzyl) piperidine-3-carboxamide]
potency relative to compound 12 (β-catenin/BCL9 PPI): two-fold less potent than 12
pIC50 (β-catenin/BCL9 PPI; [2]): ≥ 4.52
pKi (β-catenin/BCL9 PPI; [3]): ≥ 4.52

Compound: CC(C)(Oc1cccc(N2CCCC(C(=O)N(Cc3ccc(-c4cccs4)cc3)C3CC3)C2)c1)C(=O)NS(=O)(=O)c1ccccc1 (stereo not drawn) [Compound 21, N-Cyclopropyl-1-(3-((2-methyl-1-oxo-1-(phenylsulfonamido)propan-2-yl)oxy)phenyl)-N-(4-(thiophen-2-yl)benzyl) piperidine-3-carboxamide]
potency relative to compound 12 (β-catenin/BCL9 PPI): two-fold more potent than 12
AlphaScreen inhibitory activity in words (β-catenin/BCL9 PPI): improved activities
pIC50 (β-catenin/BCL9 PPI; [2]): ≥ 5.00
pKi (β-catenin/BCL9 PPI; [3]): ≥ 5.00
